According to ChEMBL document CHEMBL4402590, “Small-Molecule Antagonist Targeting Exportin-1 via Rational Structure-Based Discovery” (J Med Chem, 2020):
Active and inactive are the calls of the source. The calls are words filed in the database; no cut-off is given here.

What was measured:
Mus musculus [1] = experiment: Anti-inflammatory activity against DSS-induced ulcerative colitis C57BL/6J mouse model assessed as reduction in IL-6 production at 10 mg/kg, po administered for 7 days and measured on day 7 by ELISA; type: functional, organism-based
Mus musculus [2] = experiment: Anti-inflammatory activity against DSS-induced ulcerative colitis C57BL/6J mouse model assessed as reduction in IL-23 production at 10 mg/kg, po administered for 7 days and measured on day 7 by ELISA; type: functional, organism-based
Mus musculus [3] = experiment: Anti-inflammatory activity against DSS-induced ulcerative colitis C57BL/6J mouse model assessed as reduction in colon swelling at 10 mg/kg, po administered for 7 days and measured on day 7; type: functional, organism-based
Mus musculus [4] = experiment: Anti-inflammatory activity against DSS-induced ulcerative colitis C57BL/6J mouse model assessed as reduction in body weight loss at 10 mg/kg, po administered for 7 days and measured daily; type: functional, organism-based
Mus musculus [5] = experiment: Anti-inflammatory activity against DSS-induced ulcerative colitis C57BL/6J mouse model assessed as reduction in diarrhea at 10 mg/kg, po administered for 7 days and measured daily; type: functional, organism-based
Mus musculus [6] = experiment: Anti-inflammatory activity against DSS-induced ulcerative colitis C57BL/6J mouse model assessed as restoration of colon length at 10 mg/kg, po administered for 7 days and measured on day 7; type: functional, organism-based
Mus musculus [7] = experiment: Anti-inflammatory activity against DSS-induced ulcerative colitis C57BL/6J mouse model assessed as restoration of damaged colon mucosal layer at 10 mg/kg, po administered for 7 days and measured on day 7 by ELISA; type: functional, organism-based
Mus musculus [8] = experiment: Anti-inflammatory activity against DSS-induced ulcerative colitis C57BL/6J mouse model assessed as reduction in colon inflammation at 10 mg/kg, po administered for 7 days and measured on day 7; type: functional, organism-based
Mus musculus [9] = experiment: Anti-inflammatory activity against DSS-induced ulcerative colitis C57BL/6J mouse model assessed as reduction in TNFalpha production at 10 mg/kg, po administered for 7 days and measured on day 7 by ELISA; type: functional, organism-based
Mus musculus [10] = experiment: Anti-inflammatory activity against DSS-induced ulcerative colitis C57BL/6J mouse model assessed as reduction in colon ulceration at 10 mg/kg, po administered for 7 days and measured on day 7; type: functional, organism-based
Mus musculus [11] = experiment: Anti-inflammatory activity against DSS-induced ulcerative colitis C57BL/6J mouse model assessed as reduction in IL-1beta production at 10 mg/kg, po administered for 7 days and measured on day 7 by ELISA; type: functional, organism-based
Exportin-1 = Exportin-1 (Homo sapiens, UniProt O14980); experiment: Reversible inhibition of CRM1 in human 293T cells assessed as increase in translocation of NES-GFP to […] at 4 uM incubated for 2 hrs by confocal laser scanning microscopy; type: cell-based
Chain of Exportin-1 (O14980 whole entry): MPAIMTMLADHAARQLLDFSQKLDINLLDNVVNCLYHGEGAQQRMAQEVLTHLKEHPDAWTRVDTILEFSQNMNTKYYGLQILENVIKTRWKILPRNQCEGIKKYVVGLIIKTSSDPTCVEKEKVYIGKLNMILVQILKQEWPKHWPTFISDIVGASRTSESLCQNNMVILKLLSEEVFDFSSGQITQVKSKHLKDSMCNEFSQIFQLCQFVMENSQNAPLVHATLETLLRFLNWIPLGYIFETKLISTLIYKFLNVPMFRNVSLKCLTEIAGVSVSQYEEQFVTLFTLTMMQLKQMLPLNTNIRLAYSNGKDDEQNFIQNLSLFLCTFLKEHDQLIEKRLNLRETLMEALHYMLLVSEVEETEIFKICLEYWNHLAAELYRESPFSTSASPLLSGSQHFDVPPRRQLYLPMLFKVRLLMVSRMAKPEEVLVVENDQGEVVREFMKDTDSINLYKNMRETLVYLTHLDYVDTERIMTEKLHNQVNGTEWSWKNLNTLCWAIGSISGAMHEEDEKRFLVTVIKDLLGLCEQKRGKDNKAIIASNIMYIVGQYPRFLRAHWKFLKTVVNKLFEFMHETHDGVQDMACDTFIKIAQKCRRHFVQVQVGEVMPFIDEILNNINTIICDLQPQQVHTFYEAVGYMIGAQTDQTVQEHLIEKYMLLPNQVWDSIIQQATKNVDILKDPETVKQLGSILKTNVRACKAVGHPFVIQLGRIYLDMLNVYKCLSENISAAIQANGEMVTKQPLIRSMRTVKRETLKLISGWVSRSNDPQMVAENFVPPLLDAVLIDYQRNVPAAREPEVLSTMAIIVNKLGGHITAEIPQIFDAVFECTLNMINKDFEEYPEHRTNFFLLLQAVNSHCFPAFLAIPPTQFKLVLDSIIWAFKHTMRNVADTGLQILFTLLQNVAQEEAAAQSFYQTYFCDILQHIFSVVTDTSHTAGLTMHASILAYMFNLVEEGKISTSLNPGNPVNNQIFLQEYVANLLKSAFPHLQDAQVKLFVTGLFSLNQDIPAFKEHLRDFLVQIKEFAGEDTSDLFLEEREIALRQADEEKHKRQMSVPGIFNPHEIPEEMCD

Question: Which results are given for `O=C(O)C[C@H]1CCc2c1[nH]c1ccc(OCc3ccc(C4CCCC4)c(C(F)(F)F)c3)cc21`?
Answer: Activity (Mus musculus [1]): Active; Activity (Mus musculus [2]): Active; Activity (Mus musculus [3]): Active; Activity (Mus musculus [4]): Active; Activity (Mus musculus [5]): Active; Activity (Mus musculus [6]): Active; Activity (Mus musculus [7]): Active; Activity (Mus musculus [8]): Active; Activity (Mus musculus [9]): Active; Activity (Mus musculus [10]): Active; Activity (Mus musculus [11]): Active

Question: For `O=C(/C=C\n1cnc(-c2cc(C(F)(F)F)cc(C(F)(F)F)c2)n1)NNc1cnccn1`, which inhibition (Exportin-1) is on record?
Answer: Its inhibition is “inactive”.
